Experimental data reported in patent US9738610B2, “Indazole derivatives and uses thereof” (Whitehead Institute for Biomedical Research, priority 2012, dated 2017).
“Also recorded” adds a separate entry of the source.

Tests used:
Aspergillus terreus = Aspergillus terreus susceptibility test (CLSI M38-A2); assay type: cell-based
Method: Aspergillus terreus (A. terreus) susceptibility testing was performed as described in Clinical Laboratory Standards Institute document […]-A2 (CLSI […]-A2) (CLSI. Reference Method for Broth Dilution Antifungal Susceptibility Testing of Filamentous Fungi; Approved Standard-Second Edition. CLSI, 940 West Valley Road, Suite 1400, Wayne, Pa. 19087-1898 USA, 2003).

[1] = tested on: Saccharomyces cerevisiae strain W303-1a; assay: In vivo inhibition of fungal respiration (growth on glycerol); assay type: cell-based; details: glycerol medium, 48 hours
Method: Saccharomyces cerevisiae (S. cerevisiae) strain W303-1a was grown overnight in Yeast-Peptone-Dextrose media, washed, and diluted into Yeast Nitrogen Base media with 2.5% glycerol containing compounds at a range of dilutions.

[2] = target: cytochrome B of S. cerevisiae resistant to known antifungal agents (Saccharomyces cerevisiae, UniProt P00163, L275F); details: FIG. 14A curve 3
Method: (§1) Compounds described herein were added to plates in a buffer containing 50 mM Tris-Cl pH 7.3, 10 mM NaN3, 0.01% BSA, and 0.05% Tween-20. Mitochondrial membranes (2-5 μg protein) were added to the buffer, followed by oxidized equine cytochrome C (Sigma) at a final concentration of 50 μM. Reactions were initiated by adding decylubiquinol to a final concentration of 50 μM. Reaction progress was monitored by reading the increase in signal at 550 nm on a Tecan Evo plate reader. […] All measurements were performed in triplicate.

human Complex III = target: T1, human Complex III (Homo sapiens, UniProt P00156); assay: In vitro inhibition of Complex III, human enzyme; assay type: biochemical; details: FIG. 14A curve 2
T1 construct: Mitochondrial membranes were prepared from yeast (Meisinger et al., Methods Mol. Biol. 2006, 313:33-9.) or HEK293 cells; endogenous in cells; host or cells: HEK293 cells (mitochondrial membranes)
Method: as §1

[3] = target: cytochrome B of yeast S. cerevisiae (wild type) (Saccharomyces cerevisiae, UniProt P00163); assay: biochemical
C. albicans [4] = assay: Candida albicans susceptibility test (CLSI M27-A3); assay type: cell-based; details: FIG. 9
Method: Candida albicans susceptibility testing was performed as described in Clinical Laboratory Standards Institute document M27-A3 (CLSI M27-A3) (CLSI. Reference Method for Broth Dilution Antifungal Susceptibility Testing of Yeasts; Approved Standard—Third Edition. CLSI, 940 West Valley Road, Suite 1400, Wayne, Pa. 19087-1898 USA, 2003).

C. albicans CaCi-2 = assay: CaCi-2 growth inhibition in the presence of 8 μg/ml fluconazole (Alamar Blue); assay type: cell-based, Candida albicans; details: Candida albicans, CACI2; 8 μg/mL fluconazole alone in the primary assay; read-out: Basal level of growth inhibition of CaCi-2
Method: Fluconazole was obtained from Sequoia Research Products, Ltd. and prepared in a 2 mg/ml stock solution in phosphate buffered saline (PBS). […] PBS (Catalog No. 21-040-CV) without calcium and magnesium was obtained from Cellgro. Penicillin/Streptomycin (Pen/Strep) was obtained from Gibco and prepared 100× in PBS.
RPMI medium (1×) was prepared by dissolving 10.4 g powdered medium in 800 ml water. A buffer of 34.52 g MOPS was added. While stirring, pH was adjusted to 7.0 with 10 N NaOH. Next, 10 ml uridine solution and 50 ml glucose solution were added. The final volume was adjusted to 1000 ml, and filter sterilized.
The following yeast strains were used in this study: C. albicans CaCi-2. Fungal inoculum was prepared as follows: 500 μl of strain was inoculated from cryopreserved stock into a 250-ml shaker flask containing 30 ml growth medium and shaken overnight at 30° C. The optical density (OD 600) of 1 ml fungal culture in a cuvette was read using a standard optical density reader (Eppendorf BioPhotometer Plus), with growth medium as a background blank. The desired volume of fungal inoculums was diluted to desired volume of fungal inoculums according to the following formula: (1/OD measured)×(Desired Final Volume of Inoculum)×0.3=Volume of fungal culture (μl) to add to desired volume of growth medium. When added to media in wells, this yields a calculated starting OD of the fungal inoculum of 0.00015.
Fluconazole stock solution was added to the fungal inoculum to achieve 8 μg/ml. Pen/Strep was added to the media to a 1% concentration (v/v). A Thermo Combi nL was used to dispense 20 μl/well of assay media into all wells. Geldanamycin was dispensed in positive control wells using Thermo Combi nL for a final concentration of 3 μM. Then, 100 nl of test compound was pinned from compound plates into assay plates using a CyBi-Well pin tool. A further 20 μl/well of culture was dispensed into the assay media in all wells. The plates were incubated in a humidified (90% humidity) Liconic incubator at 37° C. without agitation for 48 hours. Alamar Blue was diluted 1:40 in Ca/Mg-free PBS. To all plates, […] of the diluted Alamar Blue was added to the plates to a final dilution factor of 1:200. The plates were incubated for an additional 2 hours. Then, Relative Fluorescence Intensity (RFU) of each well was read on standard plate reader as a measure of relative fungal growth.

CaCi-8 = assay: MIC of fluconazole against CaCi-8; assay type: cell-based; details: Candida albicans; read-out: Minimum inhibitory concentration (MIC) against CaCi-8
Method: (§2) In order to identify non-fungitoxic chemosensitizers (“probes” or “probe compounds”) of C. albicans, compounds from the NIH's Molecular Libraries Small Molecule Repository (MLSMR) (mli.nih.gov/mli/secondary-menu/mlscn/ml-small-molecule-repository/) were evaluated in the screening cascade summarized in FIG. 3. The C. albicans strains used in the primary screen and secondary assay 1 (CaCi-2 and CaCi-8, respectively) are both clinical isolates that partially respond to fluconazole treatment (Redding et al., Clin. Infect. Dis. 1994, 18, 240-242). […] In the primary assay, CaCi-2 cells are exposed to 8 μg/mL fluconazole; this induces a basal level of 60-80% growth inhibition with additional suppression of the trailing growth associated with this particular strain (Redding et al., Clin. Infect. Dis. 1994, 18, 240-242).

[5] = tested on: Candida albicans strain CaCi-2; assay: Cytotoxicity to fluconazole-resistant strain CaCi-2; assay type: cell-based; details: fluconazole alone
[6] = tested on: Candida albicans strain SC5314; assay: Cytotoxicity to fluconazole-sensitive strain SC5314; assay type: cell-based; details: fluconazole alone
CaCi-2 = assay: MIC of fluconazole against CaCi-2; assay type: cell-based; details: Candida albicans; read-out: Minimum inhibitory concentration (MIC) against CaCi-2
Method: as §2

C. albicans [7] = details: cited from earlier work
fungus = details: read-out: IC50, single-agent antifungal activity; cited from earlier work

## COC(=O)Cn1nc(-c2ccccc2)c2ccccc21 [Compound I-3]
Aspergillus terreus
  Inhibitory activity against A. terreus: shows inhibitory activity
[1]
  Inhibitory activity against S. cerevisiae (respiratory growth): completely inhibits respiratory growth; also recorded: shows inhibitory activity
[2]
  Inhibitory activity against resistant S. cerevisiae: showed inhibitory activity
Human Complex III
  Inhibition of human Complex III in vitro: active
[3]
  IC50: ~600 nM

## c1ccc(COc2cccc(-c3nn(Cc4nnco4)c4ccccc34)c2)cc1 [Compound I-52]
C. albicans [4]
  Inhibition of C. albicans in absence and presence of fluconazole (FCZ): more active in inhibiting C. albicans in presence of fluconazole (FCZ) than in absence thereof
Aspergillus terreus
  Inhibitory activity against A. terreus: shows inhibitory activity
[1]
  Inhibitory activity against S. cerevisiae (respiratory growth): shows inhibitory activity

## OC(Cn1cncn1)(Cn1cncn1)c1ccc(F)cc1F [fluconazole, reference compound]
C. albicans CaCi-2
  inhibition at 8 µg/mL: 60 to 80%
CaCi-8
  MIC: 8 µg/mL
[5]
  Effect on CaCi-2: not cytostatic or cytotoxic
[6]
  Effect on SC5314: cytostatic, but not cytotoxic
CaCi-2
  MIC: 2 µg/mL

## Plagiochin E
C. albicans [7]
  Concentration that increased yeast susceptibility to fluconazole: 2.4 µM
fungus
  IC50: 3.8 µM
